Results reported in US4851536A, “Cyclohexylquinolines as inhibitors of interleukin 1” (American Home Products Corporation, priority 1988, dated 1989).

How the values were obtained:
[1] = tested on: IL 1-induced release of neutral protease from rabbit articular chondrocytes; assay: Inhibition of IL 1-induced release of neutral protease from rabbit articular chondrocytes (% inhibition of protease secretion, azocoll degradation); format: cell-based, rabbit (male New Zealand White); details: Oryctolagus cuniculus, Chondrocyte, test compound 10 minutes prior to IL 1, 24 hours after IL 1 stimulation
Experimental: The ability of the compounds of the inventions to inhibit interleukin 1 is measured by the ability of the test compounds to inhibit the IL 1-induced release of neutral protease from rabbit articular chondrocytes.
This assay is carried out as follows:
Isolation of rabbit chondrocytes:
Male New Zealand White rabbits are anesthetized with 50 mg/kg of ketamine (i.m.) and killed by an intracardiac injection of 3 mls of Nembutal. The knee joints of both legs are resected and the articular surfaces are exposed. Cartilage slices are obtained using a scalpel and are placed in a tissue culture dish (100 mm diameter) containing 10 mls of Hank's balanced salt solution (HBSS). The chondrocytes within the cartilage slices are then liberated by a series of enzyme digestions. The slices are incubated for 10 minutes at 37° C. in 0.05% hyaluronidase (Sigma H-3884), rinsed with HBSS and incubated with 0.2% trypsin (Sigma T-2395) for 10 minutes at 37° C. The slices are rinsed again and incubated for 10 minutes at 37° C. with 1.2% collagenase (Sigma C-5138). The slices are then rinsed again with HBSS and resuspended in 10 ml of Ham's F-12 medium containing 10% fetal bovine calf serum (FCS) and 0.2% collagenase and incubated overnight at 37° C. in a 5% CO2 incubator. The next day, the medium containing the digested cartilage fragments and liberated chondrocytes is transferred to a 15 ml centrifuge tube and the cells are collected by centrifugation and washed twice and resuspended in Ham's F-12 medium. The cells are then plated into 24-well tissue culture plates (2×10^5 cells/well) and incubated at 37° C. until confluent (usually 4-6 days).
Stimulation of chondrocytes and drug treatment
The confluent chondrocytes are rinsed twice with serum-free Ham's F-12 medium and 1 ml is added to each well. Fifty μl of purified human IL 1 (100 Units/ml; Genzyme Corporation, Boston, MA) is then added to stimulate these cells to secrete neutral protease. To measure drug effects, the cells are treated with test compound 10 minutes prior to additon of IL 1. The standard screening dose is 10 μM. Twenty-four hours after IL 1 stimulation, supernatant fluids are collected and assayed for neutral protease activity.
The neutral protease activity of chondrocyte supernatant fluids is determined by their ability to degrade an insoluble protease substrate, azocoll (Sigma). Supernatants are treated for 10 minutes at room temperature with 350 μM p-aminophenylmurcuric acetate to activate the latent enzyme. Three hundred μl of supernatant is then mixed with 500 μl of a 20 mg/ml suspension of azocoll and incubated at 37° C. for 18-24 hours with gentle rocking. The mixtures are centrifuged and the amount of substrate hydrolyzed is determined by measuring the absorbance of the supernatant at 520 nm.
Drug effects are calculated as the % change in enzyme activity (absorbance)by supernatants from drug-treated chondrocytes relative to enzyme activity of supernatants from vehicle-treated chondrocytes as follows:
% Inhibition of Protease Secretion= [formula]

[2] = tested on: IL 1-induced release of neutral protease from rabbit articular chondrocytes; assay: as above; format: cell-based, rabbit (male New Zealand White); details: Oryctolagus cuniculus, Chondrocyte, test compound 10 minutes prior to IL 1, 24 hours after IL 1 stimulation; remark: listed apart in the source

| SMILES | inhibition at 10 µM [1] [%] | inhibition at 0.1 µM [2] [%] | inhibition at 1 µM [2] [%] | inhibition at 5 µM [2] [%] |
| --- | --- | --- | --- | --- |
| Clc1ccc2c(Cl)c3c(nc2c1)CCSC3 [Example 1A, 7,10-Dichloro-3,4-dihydro-1H-thiopyrano[4,3-b]quinoline] | 35 ± 11 |  |  |  |
| Clc1ccc2c(NNc3ccccc3)c3c(nc2c1)CCSC3 [Example 1B, 7-Chloro-3,4-dihydro-10-(2-phenylhydrazino)-1H-thiopyrano[4,3-b]quinoline] | 98 ± 1 | 67 | 94 | 93 ± 5 |
| CC1CCc2nc3cc(Cl)ccc3c(Cl)c2C1 (stereo not shown) [Example 2A, 6,9-Dichloro-1,2,3,4-tetrahydro-2-methylacridine, quarter hydrate] | 34 ± 26 |  |  |  |
| CC1CCc2nc3cc(Cl)ccc3c(NNc3ccccc3)c2C1 (stereo not shown) [Example 2B, 6-Chloro-1,2,3,4-tetrahydro-2-methyl-9-(2-phenylhydrazino)acridine] | 85 ± 6 |  | 36 |  |
| Clc1ccc2c(Cl)c3c(nc2c1)CCC(c1ccccc1)C3 (stereo not shown) [Example 3A, 6,9-Dichloro-1,2,3,4-tetrahydro-2-phenylacridine, hemihydrate] | ≤ 20 |  |  |  |
| Clc1ccc2c(NNc3ccccc3)c3c(nc2c1)CCC(c1ccccc1)C3 (stereo not shown) [Example 3B, 6-Chloro-1,2,3,4-tetrahydro-2-phenyl-9-(2-phenylhydrazino)acridine] | 81 ± 2 |  | 27 |  |
| Clc1c2c(nc3ccccc13)CCSC2 [Example 4, 10-Chloro-3,4-dihydro-1H-thiopyrano[4,3-b]quinoline] | 43 |  | 38 | 46 |
| c1ccc(NNc2c3c(nc4ccccc24)CCSC3)cc1 [Example 5, 3,4-Dihydro-10-(2-phenylhydrazino)-1H-thiopyrano[4,3-b]quinoline, three-quarters hydrate] | 79 ± 14 |  | 37 | 55 ± 22 |
| O=S1(=O)CCc2nc3ccccc3c(Cl)c2C1 [Example 6, 10-Chloro-3,4-dihydro-1H-thiopyrano[4,3-b]quinoline 2,2-dioxide] | 32 |  |  | 19 |
| O=S1(=O)CCc2nc3cc(Cl)ccc3c(Cl)c2C1 [Example 7, 7,10-Dichloro-3,4-dihydro-1H-thiopyrano[4,3-b]quinoline 2,2-dioxide] | 25 |  | 10 | 26 |
| O=S1(=O)CCc2nc3cc(Cl)ccc3c(NNc3ccccc3)c2C1 [Example 8, 7-Chloro-3,4-dihydro-10-(2-phenylhydrazino)-1H-thiopyrano[4,3-b]quinoline 2,2-dioxide] | 16 |  | 3 | 37 |
| COC(=O)C1CCc2nc3cc(Cl)ccc3c(Cl)c2C1 (stereo not shown) [Example 9, 6,9-Dichloro-1,2,3,4-tetrahydro-2-acridinecarboxylic acid methyl ester] | 58 |  | 30 | 53 |
| CCOC(=O)C1CCc2nc3cc(Cl)ccc3c(NNc3ccccc3)c2C1 (stereo not shown) [Example 10, 6-Chloro-1,2,3,4-tetrahydro-9-(2-phenylhydrazino)-2-acridinecarboxylic acid ethyl ester] | 96 | 70 | 91 |  |
| O=C(O)C1CCc2nc3cc(Cl)ccc3c(Cl)c2C1 (stereo not shown) [Example 11, 6,9-Dichloro-1,2,3,4-tetrahydro-2-acridinecarboxylic acid] | 88 | 58 | 50 |  |
| O=C(O)C1CCc2nc3cc(Cl)ccc3c(NNc3ccccc3)c2C1 (stereo not shown) [Example 12, 6-Chloro-1,2,3,4-tetrahydro-9-(2-phenylhydrazino)-2-acridinecarboxylic acid hemihydrate] | 68 | 57 | 61 |  |
